Experimental data published in patent US11234954B2, “Low-dose doxepin for treatment of sleep disorders in elderly patients” (Pernix Sleep, Inc., priority 2006, dated 2022).
Like-named read-outs stand apart in the source and are kept apart here.

Assays:
[1] = test system: primary elderly insomnia patients with sleep maintenance difficulties; type: in vivo, human
Description: Subjects were females and males, 65 years of age or older, with at least a 3-month history of primary insomnia (as defined in the Diagnostic and Statistical Manual of Mental Disorders, Fourth Edition, Text Revision), who reported experiencing at least 60 minutes of Wake After Sleep Onset (WASO), at least 30 minutes of Latency to Sleep Onset (LSO), and no more than 6.5 hours of Total Sleep Time (TST) on at least 4 of 7 consecutive nights prior to PSG Screening.
Primary Efficacy Variable: The primary efficacy variable was WASO on Night 1.
Additional PSG Variables: Additional efficacy variables assessed on each PSG recording night during the Double-blind Treatment Period were WASO (Night 15, Night 29, Night 57, and Night 85); WTDS; TST; Sleep Efficiency (SE) overall, by third of the night, the last quarter of the night, and hour of the night; LPS; Latency to Stage 2 Sleep; Number of Awakenings After Sleep Onset (NAASO) overall and by hour; Total Wake Time (TWT) overall and by hour; Wake Time After Sleep (WTAS); and sleep architecture (including percentage and minutes of Stage 1, 2, and 3-4 sleep; percentage and minutes of rapid eye movement [REM] and non-REM sleep; and Latency to REM Sleep.)

[2] = test system: primary elderly insomnia patients with sleep maintenance difficulties; assay: Clinical Global Impressions (CGI), Phase III elderly study (Example 2); type: in vivo, human
Description: Subjective Variables: Subjective efficacy variables were subjective TST (sTST), subjective WASO (sWASO), LSO, subjective NAASO (sNAASO), and sleep quality. These variable were assessed using a questionnaire completed in the morning following each PSG recording night. Drowsiness, ability to function, and total nap time during the day were assessed using an evening questionnaire completed prior to PSG recording at Nights −6, −5, 1, 15, 29, 57, and 85. Other secondary subjective efficacy variables included the 2-item Clinical Global Impressions (CGI) scale for severity of illness and therapeutic effect completed by a clinician; the 5-item CGI scale pertaining to therapeutic effect completed by the subject; the Insomnia Severity Index (ISI) completed by the subject, and a subjective assessment of sTST, LSO, and sleep quality collected through the IVRS.
Clinical Global Impressions (CGI) ns (CGI) consist of two questions addressed to the clinician relating to the severity of illness and therapeutic effect of the study drug and five questions addressed to the patient relating to the therapeutic effect of the drug.

[3] = test system: Adult Patients (Ages 18-64) with Primary Insomnia; assay: Subjective sleep parameters, adult crossover study (Example 3); type: in vivo, human; settings: Per-Protocol N = 61
Text: (§1) The primary and secondary efficacy assessments were as described above in Example 1.

[4] = test system: Adult Patients (Ages 18-64) with Primary Insomnia; assay: PSG efficacy, four-period crossover dose-response study in adults 18-64 (Example 3); type: in vivo, human; settings: for LPS, Mean / SE, Mean / TST, Mean / WASO, Mean / WTAS, Mean: Per-Protocol N = 61; for WTDS, observed mean (±SD) (primary efficacy variable): WTDS typically expressed in minutes
Text: as §1

[5] = in vivo; cited from earlier work

CN(C)CCC=C1c2ccccc2COc2ccccc21 (mixture of isomers) [Doxepin]
LS mean WASO shorter compared with the placebo group ([1]; Night 1, 1 mg): 17.8 min | LPS, mean (SD) ([1]; Night 1, 1 mg, ITT N = 77): 38.8 (29.58) minutes | SE Overall, mean (SD) ([1]; Night 1, 1 mg, ITT N = 77): 74.8 (11.05) % | TST, mean (SD) ([1]; Night 1, 1 mg, ITT N = 77): 359.1 (53.05) minutes | WTAS, mean (SD) ([1]; Night 1, 1 mg, ITT N = 77): 8.9 (18.84) minutes | WASO, Diff. of LS Mean versus placebo ([1]; Night 1, 1 mg, ITT n = 77): -17.8 min | WASO, Mean (Primary Efficacy Variable) ([1]; Night 1, 1 mg, ITT n = 77): 91.8 min | LS mean WASO shorter compared with the placebo group ([1]; Night 1, 3 mg): 33.8 min | LPS, mean (SD) ([1]; Night 1, 3 mg, ITT N = 82): 28.6 (20.53) minutes | SE Overall, mean (SD) ([1]; Night 1, 3 mg, ITT N = 82): 79.8 (9.21) % | TST, mean (SD) ([1]; Night 1, 3 mg, ITT N = 82): 382.9 (44.23) minutes | WTAS, mean (SD) ([1]; Night 1, 3 mg, ITT N = 82): 4.7 (14.61) minutes | WASO, Diff. of LS Mean versus placebo ([1]; Night 1, 3 mg, ITT n = 82): -33.8 min | WASO, Mean (Primary Efficacy Variable) ([1]; Night 1, 3 mg, ITT n = 82): 74.5 min | LPS, mean (SD) ([1]; Night 85, 1 mg, ITT N = 77): 29.0 (26.45) minutes | SE Overall, mean (SD) ([1]; Night 85, 1 mg, ITT N = 77): 75.1 (9.83) % | TST, mean (SD) ([1]; Night 85, 1 mg, ITT N = 77): 360.5 (47.17) minutes | WTAS, mean (SD) ([1]; Night 85, 1 mg, ITT N = 77): 10.8 (21.78) minutes | WASO, Diff. of LS Mean versus placebo ([1]; Night 85, 1 mg, ITT n = 69): -14.6 min | WASO, Mean ([1]; Night 85, 1 mg, ITT n = 69): 97.0 min | LPS, mean (SD) ([1]; Night 85, 3 mg, ITT N = 82): 37.5 (32.74) minutes | SE Overall, mean (SD) ([1]; Night 85, 3 mg, ITT N = 82): 77.9 (8.80) % | TST, mean (SD) ([1]; Night 85, 3 mg, ITT N = 82): 373.7 (42.24) minutes | WTAS, mean (SD) ([1]; Night 85, 3 mg, ITT N = 82): 5.4 (13.20) minutes | WASO, Diff. of LS Mean versus placebo ([1]; Night 85, 3 mg, ITT n = 74): -33.2 min | WASO, Mean ([1]; Night 85, 3 mg, ITT n = 74): 75.7 min | mean CGI (clinician-rated) severity of illness and therapeutic effect scores compared with placebo ([2]; Night 85, both doxepin treatment groups (1 mg, 3 mg)): statistically significant improvements | CGI (subject-rated) scale of therapeutic effect, all five parameters, compared with placebo ([2]; after 85 nights of treatment, both doxepin groups (1 mg, 3 mg)): statistically significant improvements | LSO, Mean ([3]; 1 mg): 46.9 min | sTST, Mean ([3]; 1 mg): 364.2 min | sWASO, Mean ([3]; 1 mg): 56.1 min | LSO, Mean ([3]; 3 mg): 46.1 min | sTST, Mean ([3]; 3 mg): 379.7 min | sWASO, Mean ([3]; 3 mg): 50.5 min | LSO, Mean ([3]; 6 mg): 44.1 min | sTST, Mean ([3]; 6 mg): 383.0 min | sWASO, Mean ([3]; 6 mg): 42.1 min | LPS, Mean ([4]; 1 mg): 30.1 min | SE, Mean ([4]; 1 mg): 84.7% | TST, Mean ([4]; 1 mg): 406.5 min | WASO, Mean ([4]; 1 mg): 47.3 min | WTAS, Mean ([4]; 1 mg): 4.1 min | WTDS, observed mean (±SD) (primary efficacy variable) ([4]; 1 mg): 43.2 (28.2) | LPS, Mean ([4]; 3 mg): 30.8 min | SE, Mean ([4]; 3 mg): 86.5% | TST, Mean ([4]; 3 mg): 415.2 min | WASO, Mean ([4]; 3 mg): 38.6 min | WTAS, Mean ([4]; 3 mg): 5.2 min | WTDS, observed mean (±SD) (primary efficacy variable) ([4]; 3 mg): 33.4 (21.87) | LPS, Mean ([4]; 6 mg): 27.9 min | SE, Mean ([4]; 6 mg): 86.9% | TST, Mean ([4]; 6 mg): 417.2 min | WASO, Mean ([4]; 6 mg): 38.8 min | WTAS, Mean ([4]; 6 mg): 2.5 min | WTDS, observed mean (±SD) (primary efficacy variable) ([4]; 6 mg): 35.3 (25.17) | mean half-life [5]: 17 h
